Results published in paper PMC3834327, “N ^6-Substituted AMPs Inhibit Mammalian Deoxynucleotide N-Hydrolase DNPH1” (PLoS ONE, 2013).
Blank lines part the entries; values can stand above or below the molecule they belong to.

How the values were obtained:
[1] = target: T1, human DNPH1 (Homo sapiens, UniProt O43598); test: Kinetic measurements: inhibition of human DNPH1 activity (dGMP substrate, guanine by RR-HPLC)
T1 sequence (O43598 1-174): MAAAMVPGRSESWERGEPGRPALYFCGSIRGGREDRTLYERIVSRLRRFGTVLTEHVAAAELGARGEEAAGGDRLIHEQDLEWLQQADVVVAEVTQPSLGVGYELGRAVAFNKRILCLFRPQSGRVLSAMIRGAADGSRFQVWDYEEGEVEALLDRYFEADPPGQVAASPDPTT

[2] = target: T1, human DNPH1; test: Isothermal titration calorimetry with human DNPH1; conditions: for -T∆S / ∆G / ∆H / ∆S: ITC, T = 298 K, pH 6.0, human DNPH1
[3] = target: T2, rat DNPH1 (Rattus norvegicus, UniProt O35820); test: Isothermal titration calorimetry with rat DNPH1; conditions: for -T∆S / ∆G / ∆H / ∆S: ITC, T = 298 K, pH 6.0, rat DNPH1
T2 sequence (O35820 1-163): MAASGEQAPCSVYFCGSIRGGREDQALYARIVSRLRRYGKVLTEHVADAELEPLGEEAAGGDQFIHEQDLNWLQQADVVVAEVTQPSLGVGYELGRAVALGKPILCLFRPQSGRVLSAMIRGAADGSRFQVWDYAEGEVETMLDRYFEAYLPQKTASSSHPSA

[4] = target: T2, rat DNPH1; test: Kinetic measurements: inhibition of rat DNPH1 activity (dGMP substrate, spectrophotometric)
[5] = target: T2, rat DNPH1; parameters: made in house; host or cells: E. coli Bli5; method as in PMID 20962348; conditions: cited from earlier work
[6] = target: T1, human DNPH1; test: Kinetic parameters of human DNPH1 with 2'-deoxynucleoside 5'-monophosphates as substrates; type: biochemical; parameters: made in house; host or cells: E. coli Bli5; conditions: substrate of human DNPH1; for Km: double reciprocal plots, five concentrations

SMILES: O=P(O)(O)OC[C@H]1O[C@@H](n2cnc3c(NCc4ccco4)ncnc32)[C@H](O)[C@@H]1O [Compound 5, kinetin riboside 5’-monophosphate]
Ki [1]: 2200 ± 200 nM | Kd [2]: 1400 ± 100 nM | -T∆S [2]: 12.6 kcal/mol | ∆G [2]: -7.5 kcal/mol | ∆H [2]: -20.1 ± 0.1 kcal/mol | ∆S [2]: -42.4 cal.K^-1.mol^-1 | Kd [3]: 800 ± 100 nM | -T∆S [3]: 17.4 kcal/mol | ∆G [3]: -8.3 kcal/mol | ∆H [3]: -25.7 ± 0.1 kcal/mol | ∆S [3]: -58.3 cal.K^1.mol^-1 | Ki [4]: 1800 ± 700 nM

SMILES: O=P(O)(O)OC[C@H]1O[C@@H](n2cnc3c(NC4CCCC4)ncnc32)[C@H](O)[C@@H]1O [Compound 7, N ^6-cyclopentyladenosine 5’-monophosphate]
Ki [1]: 2600 ± 300 nM | Kd [2]: 1400 ± 400 nM | -T∆S [2]: -1.8 kcal/mol | ∆G [2]: -8.0 kcal/mol | ∆H [2]: -6.1 ± 0.1 kcal/mol | ∆S [2]: 6.2 cal.K^-1.mol^-1 | Kd [3]: 600 ± 100 nM | -T∆S [3]: 2.3 kcal/mol | ∆G [3]: -8.5 kcal/mol | ∆H [3]: -10.7 ± 0.1 kcal/mol | ∆S [3]: -7.5 cal.K^1.mol^-1 | Ki [4]: 1200 ± 100 nM

SMILES: O=P(O)(O)OC[C@H]1O[C@@H](n2cnc3c(NC4CCCCC4)ncnc32)[C@H](O)[C@@H]1O [Compound 8, N ^6-Cyclohexyladenosine 5'-monophosphate]
Ki [1]: 1600 ± 300 nM | Kd [3]: 500 ± 100 nM | -T∆S [3]: 11.2 kcal/mol | ∆G [3]: -8.7 kcal/mol | ∆H [3]: -19.9 ± 0.1 kcal/mol | ∆S [3]: -37.6 cal.K^1.mol^-1 | Ki [4]: 1200 ± 100 nM

SMILES: O=P(O)(O)OC[C@H]1O[C@@H](n2cnc3c(NC4CCC4)ncnc32)[C@H](O)[C@@H]1O [Compound 9, N ^6-Cyclobutyladenosine 5'-monophosphate]
Ki [1]: 1500 ± 100 nM | Ki [4]: 1300 ± 100 nM

SMILES: O=P(O)(O)OC[C@H]1O[C@@H](n2cnc3c(NC4CC4)ncnc32)[C@H](O)[C@@H]1O [Compound 10, N ^6-Cyclopropyladenosine 5'-monophosphate]
Ki [1]: 2800 ± 600 nM | Ki [4]: 2000 ± 600 nM

SMILES: O=P(O)(O)OC[C@H]1O[C@@H](n2cnc3c(NCCc4ccccc4)ncnc32)[C@H](O)[C@@H]1O [Compound 12, N ^6-Phenylethyladenosine 5'-monophosphate]
Ki [1]: 7800 ± 1000 nM | Ki [4]: 2900 ± 300 nM

SMILES: Nc1nc2c(ncn2[C@@H]2O[C@H](COP(=O)(O)O)[C@@H](O)[C@H]2O)c(=O)[nH]1 [GMP]
free energy [5]: -6.8 kcal/mol

SMILES: Nc1ncnc2c1ncn2[C@H]1C[C@H](O)[C@@H](COP(=O)(O)O)O1 [dAMP]
kcat [6]: 2.5 ± 0.8 10^-3 s^-1 | Km [6]: 97 ± 14 µM

SMILES: Nc1ccn([C@H]2C[C@H](O)[C@@H](COP(=O)(O)O)O2)c(=O)n1 [dCMP]
kcat [6]: 8.3 ± 0.4 10^-3 s^-1 | Km [6]: 2500 ± 207 µM

SMILES: Nc1nc2c(ncn2[C@H]2C[C@H](O)[C@@H](COP(=O)(O)O)O2)c(=O)[nH]1 [dGMP, 2’-Deoxyguanosine 5’-monophosphate]
kcat [6]: 0.002 s⁻¹

SMILES: O=c1[nH]cnc2c1ncn2[C@H]1C[C@H](O)[C@@H](COP(=O)(O)O)O1 [dIMP]
kcat [6]: 1.6 ± 0.1 10^-3 s^-1 | Km [6]: 104 ± 19 µM

SMILES: Cc1cn([C@H]2C[C@H](O)[C@@H](COP(=O)(O)O)O2)c(=O)[nH]c1=O [dTMP]
kcat [6]: 25 ± 2 10^-3 s^-1 | Km [6]: 23000 ± 3050 µM

SMILES: O=c1ccn([C@H]2C[C@H](O)[C@@H](COP(=O)(O)O)O2)c(=O)[nH]1 [dUMP]
kcat [6]: 200 ± 20 10^-3 s^-1 | Km [6]: 7800 ± 1760 µM

Continued, values first:

Ki [1]: 2000 nM | Kd [2]: 2100 ± 200 nM | -T∆S [2]: 2.4 kcal/mol | ∆G [2]: -7.8 kcal/mol | ∆H [2]: -10.2 ± 0.1 kcal/mol | ∆S [2]: -8.2 cal.K^-1.mol^-1 | Kd [3]: 2600 ± 100 nM | -T∆S [3]: 8.3 kcal/mol | ∆G [3]: -7.6 kcal/mol | ∆H [3]: -15.9 ± 0.1 kcal/mol | ∆S [3]: -27.9 cal.K^1.mol^-1 | Ki [4]: 3300 nM
SMILES: CC(C)=CCNc1ncnc2c1ncn2[C@@H]1O[C@H](COP(=O)(O)O)[C@@H](O)[C@H]1O [Compound 1, N ^6-Isopentenyl adenosine 5’-monophosphate]

Ki [1]: 8000 ± 1400 nM | Ki [4]: 15500 ± 1000 nM | decrease in activity compared to 1 ([4]; hydroxyl group on the C4 chain): up to 5 fold
SMILES: C/C(=C\CNc1ncnc2c1ncn2[C@@H]1O[C@H](COP(=O)(O)O)[C@@H](O)[C@H]1O)CO [Compound 2, trans-zeatin riboside 5’-monophosphate]

Ki [1]: 5600 ± 800 nM | Ki [4]: 6100 ± 1200 nM
SMILES: C/C(=C/CNc1ncnc2c1ncn2[C@@H]1O[C@H](COP(=O)(O)O)[C@@H](O)[C@H]1O)CO [Compound 3, cis-zeatin riboside 5’-monophosphate]

Ki [1]: 3900 ± 1000 nM | Ki [4]: 7600 ± 1500 nM
SMILES: CC(CO)CCNc1ncnc2c1ncn2[C@@H]1O[C@H](COP(=O)(O)O)[C@@H](O)[C@H]1O (stereo partly shown) [Compound 4, dihydrozeatin riboside 5’-monophosphate]

Ki [1]: 5600 ± 500 nM | Ki [4]: 6200 ± 700 nM
SMILES: O=C(O)CCNc1ncnc2c1ncn2[C@@H]1O[C@H](COP(=O)(O)O)[C@@H](O)[C@H]1O [Compound 13, N ^6-(2-carboxyethyl)adenosine 5'-monophosphate]

Ki [1]: 2100 ± 200 nM | Kd [2]: 5500 ± 100 nM | -T∆S [2]: 2.6 kcal/mol | ∆G [2]: -7.2 kcal/mol | ∆H [2]: -9.8 ± 0.1 kcal/mol | ∆S [2]: -8.8 cal.K^-1.mol^-1 | Kd [3]: 9400 ± 100 nM | -T∆S [3]: 5.5 kcal/mol | ∆G [3]: -6.9 kcal/mol | ∆H [3]: -12.4 ± 0.1 kcal/mol | ∆S [3]: -18.5 cal.K^1.mol^-1 | Ki [4]: 11200 nM
SMILES: O=C(O)CCCNc1ncnc2c1ncn2[C@@H]1O[C@H](COP(=O)(O)O)[C@@H](O)[C@H]1O [Compound 14, N ^6-(3-carboxypropyl)adenosine 5'-monophosphate]
